{"source": "ChEMBL document CHEMBL3763096", "about": "“8-Halo-substituted naphtho[2,3-b]thiophene-4,9-diones as redox-active inhibitors of keratinocyte hyperproliferation with reduced membrane-damaging properties” (Eur J Med Chem, 2016)", "key": {"[1]": {"biological_target": "T1, NADPH--cytochrome P450 reductase (Homo sapiens, UniProt P16435)", "T1 sequence (P16435 whole entry)": "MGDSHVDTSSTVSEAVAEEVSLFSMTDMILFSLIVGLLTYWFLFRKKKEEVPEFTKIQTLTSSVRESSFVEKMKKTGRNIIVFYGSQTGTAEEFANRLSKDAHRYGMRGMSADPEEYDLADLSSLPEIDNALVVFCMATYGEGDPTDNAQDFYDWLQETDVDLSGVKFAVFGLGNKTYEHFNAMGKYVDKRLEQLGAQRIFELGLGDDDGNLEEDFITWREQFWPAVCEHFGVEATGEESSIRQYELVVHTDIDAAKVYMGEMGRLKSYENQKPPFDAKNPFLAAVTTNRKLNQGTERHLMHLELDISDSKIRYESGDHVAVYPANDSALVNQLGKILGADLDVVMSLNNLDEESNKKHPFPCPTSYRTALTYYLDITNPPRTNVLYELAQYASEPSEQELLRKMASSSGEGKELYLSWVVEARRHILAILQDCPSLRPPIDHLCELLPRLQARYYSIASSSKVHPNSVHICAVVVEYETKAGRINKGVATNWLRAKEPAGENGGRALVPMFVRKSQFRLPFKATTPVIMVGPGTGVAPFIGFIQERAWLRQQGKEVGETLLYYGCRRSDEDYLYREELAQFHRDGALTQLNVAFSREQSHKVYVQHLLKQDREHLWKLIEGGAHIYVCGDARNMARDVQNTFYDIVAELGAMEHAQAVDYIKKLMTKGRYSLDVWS", "assay": "Activity at human recombinant CPR assessed as superoxide generation at 100 umol/ml by spectrophotometric assay"}, "HaCaT [2]": {"tested_on": "HaCaT", "assay": "Antihyperproliferative activity against human HaCaT cells after 48 hrs by phase contrast microscopic analysis", "assay_type": "functional, cell-based"}, "HaCaT [3]": {"tested_on": "HaCaT", "assay": "Cytotoxicity against human HaCaT cells assessed as LDH level at 2 uM incubated for 4 hrs", "assay_type": "cell-based"}, "HaCaT [4]": {"tested_on": "HaCaT", "assay": "Increase in superoxide generation in human HaCaT cells at 5 uM incubated for 18 hrs by DHE-based flow cytometric analysis", "assay_type": "functional, cell-based"}, "HaCaT [5]": {"tested_on": "HaCaT", "assay": "Increase in superoxide generation in human HaCaT cells at 5 uM incubated for 18 hrs pretreated with 5 umol/L NQO1 inhibitor dicoumarol for 25 mins followed by compound addition by DHE-based flow cytometric analysis", "assay_type": "functional, cell-based"}, "[6]": {"biological_target": "NAD(P)H dehydrogenase [quinone] 1 (Homo sapiens) (UniProt P15559)", "sequence (P15559 whole entry)": "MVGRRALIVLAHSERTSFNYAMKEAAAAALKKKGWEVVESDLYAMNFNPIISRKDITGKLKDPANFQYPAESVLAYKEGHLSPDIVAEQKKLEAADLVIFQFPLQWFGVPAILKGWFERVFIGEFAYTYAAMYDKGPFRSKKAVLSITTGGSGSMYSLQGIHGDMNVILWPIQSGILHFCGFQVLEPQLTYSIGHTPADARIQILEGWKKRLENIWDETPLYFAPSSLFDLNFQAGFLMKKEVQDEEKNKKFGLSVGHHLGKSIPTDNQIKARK", "assay": "Activity at human recombinant NQO1 assessed as superoxide generation at 25 umol/ml by spectrophotometric assay"}}, "note": "Calls of active or inactive are those of the source. The rule behind the calls is not given here."}
{"compound": "CC1=CC(=O)c2ccccc2C1=O", "note": "[MENADIONE]", "values": [{"measurement": "Activity", "setting": "[1]", "value": "Active"}]}
{"compound": "O=C(c1cccs1)c1cc2c(s1)C(=O)c1c(Br)cccc1C2=O", "values": [{"measurement": "IC50", "setting": "HaCaT [2]", "value": 11900, "unit": "nM"}, {"measurement": "Activity", "setting": "HaCaT [3]", "value": 107, "unit": "mU/ml"}]}
{"compound": "O=C(c1ccccc1)c1cc2c(s1)C(=O)c1c(Cl)cccc1C2=O", "values": [{"measurement": "IC50", "setting": "HaCaT [2]", "value": 1770, "unit": "nM"}, {"measurement": "Activity", "setting": "HaCaT [3]", "value": 122, "unit": "mU/ml"}]}
{"compound": "CCNC(=O)c1cc2c(s1)C(=O)c1c(Cl)cccc1C2=O", "values": [{"measurement": "IC50", "setting": "HaCaT [2]", "value": 1050, "unit": "nM"}, {"measurement": "Activity", "setting": "HaCaT [3]", "value": 109, "unit": "mU/ml"}]}
{"compound": "O=C1c2ccsc2C(=O)c2c(Br)cccc21", "values": [{"measurement": "IC50", "setting": "HaCaT [2]", "value": 14800, "unit": "nM"}]}
{"compound": "CCC(=O)c1cc2c(s1)C(=O)c1c(Cl)cccc1C2=O", "values": [{"measurement": "IC50", "setting": "HaCaT [2]", "value": 2750, "unit": "nM"}, {"measurement": "Activity", "setting": "HaCaT [3]", "value": 116, "unit": "mU/ml"}]}
{"compound": "O=C1c2cc(-c3nnn[nH]3)sc2C(=O)c2c(Cl)cccc21", "values": [{"measurement": "IC50", "setting": "HaCaT [2]", "value": "> 30000", "unit": "nM"}, {"measurement": "Activity", "setting": "HaCaT [3]", "value": 95, "unit": "mU/ml"}]}
{"compound": "CCN(CC)C(=O)c1cc2c(s1)C(=O)c1c(Cl)cccc1C2=O", "values": [{"measurement": "IC50", "setting": "HaCaT [2]", "value": 720, "unit": "nM"}, {"measurement": "Activity", "setting": "HaCaT [3]", "value": 112, "unit": "mU/ml"}]}
{"compound": "O=C1c2ccsc2C(=O)c2c(I)cccc21", "values": [{"measurement": "IC50", "setting": "HaCaT [2]", "value": "> 30000", "unit": "nM"}]}
{"compound": "CC(=O)c1cc2c(s1)C(=O)c1ccccc1C2=O", "values": [{"measurement": "Activity", "setting": "HaCaT [3]", "value": 253, "unit": "mU/ml"}]}
{"compound": "CC(=O)c1cc2c(s1)C(=O)c1c(Br)cccc1C2=O", "values": [{"measurement": "IC50", "setting": "HaCaT [2]", "value": 1500, "unit": "nM"}, {"measurement": "Activity", "setting": "HaCaT [3]", "value": 116, "unit": "mU/ml"}]}
{"compound": "CCOC(=O)c1cc2c(s1)C(=O)c1c(Cl)cccc1C2=O", "values": [{"measurement": "IC50", "setting": "HaCaT [2]", "value": 1220, "unit": "nM"}, {"measurement": "Activity", "setting": "HaCaT [3]", "value": 97, "unit": "mU/ml"}]}
{"compound": "CCOC(=O)c1cc2c(s1)C(=O)c1c(Br)cccc1C2=O", "values": [{"measurement": "IC50", "setting": "HaCaT [2]", "value": 1720, "unit": "nM"}, {"measurement": "Activity", "setting": "HaCaT [3]", "value": 121, "unit": "mU/ml"}]}
{"compound": "O=Cc1cc2c(s1)C(=O)c1c(Br)cccc1C2=O", "values": [{"measurement": "IC50", "setting": "HaCaT [2]", "value": 3820, "unit": "nM"}]}
{"compound": "O=C(Oc1ccccc1)c1cc2c(s1)C(=O)c1c(Br)cccc1C2=O", "values": [{"measurement": "IC50", "setting": "HaCaT [2]", "value": 6640, "unit": "nM"}]}
{"compound": "O=C(O)c1cc2c(s1)C(=O)c1c(Br)cccc1C2=O", "values": [{"measurement": "IC50", "setting": "HaCaT [2]", "value": "> 30000", "unit": "nM"}, {"measurement": "Activity", "setting": "HaCaT [3]", "value": 108, "unit": "mU/ml"}]}
{"compound": "O=C(c1cccs1)c1cc2c(s1)C(=O)c1c(Cl)cccc1C2=O", "values": [{"measurement": "IC50", "setting": "HaCaT [2]", "value": 1540, "unit": "nM"}, {"measurement": "Activity", "setting": "HaCaT [3]", "value": 127, "unit": "mU/ml"}]}
{"compound": "O=C1c2ccsc2C(=O)c2c(O)cccc21", "values": [{"measurement": "Activity", "setting": "HaCaT [4]", "value": "Active"}, {"measurement": "Activity", "setting": "HaCaT [5]", "value": "Active"}, {"measurement": "Activity", "setting": "[1]", "value": "Active"}]}
{"compound": "O=C(Oc1ccccc1)c1cc2c(s1)C(=O)c1c(Cl)cccc1C2=O", "values": [{"measurement": "IC50", "setting": "HaCaT [2]", "value": 10500, "unit": "nM"}, {"measurement": "Activity", "setting": "HaCaT [3]", "value": 97, "unit": "mU/ml"}]}
{"compound": "O=C(Nc1ccccc1)c1cc2c(s1)C(=O)c1c(Cl)cccc1C2=O", "values": [{"measurement": "IC50", "setting": "HaCaT [2]", "value": "> 30000", "unit": "nM"}, {"measurement": "Activity", "setting": "HaCaT [3]", "value": 121, "unit": "mU/ml"}]}
{"compound": "O=C(c1ccccc1)c1cc2c(s1)C(=O)c1c(Br)cccc1C2=O", "values": [{"measurement": "IC50", "setting": "HaCaT [2]", "value": 13200, "unit": "nM"}, {"measurement": "Activity", "setting": "HaCaT [3]", "value": 121, "unit": "mU/ml"}]}
{"compound": "CCc1noc(-c2cc3c(s2)C(=O)c2c(Cl)cccc2C3=O)n1", "values": [{"measurement": "IC50", "setting": "HaCaT [2]", "value": 590, "unit": "nM"}, {"measurement": "Activity", "setting": "[6]", "value": "inactive"}, {"measurement": "Activity", "setting": "HaCaT [4]", "value": "Active"}, {"measurement": "Activity", "setting": "HaCaT [5]", "value": "Active"}, {"measurement": "Activity", "setting": "[1]", "value": "Active"}, {"measurement": "Activity", "setting": "HaCaT [3]", "value": 121, "unit": "mU/ml"}]}
{"compound": "COC(=O)c1cc2c(s1)C(=O)c1c(Br)cccc1C2=O", "values": [{"measurement": "IC50", "setting": "HaCaT [2]", "value": 2200, "unit": "nM"}, {"measurement": "Activity", "setting": "HaCaT [3]", "value": 124, "unit": "mU/ml"}]}
{"compound": "CCC(=O)c1cc2c(s1)C(=O)c1c(Br)cccc1C2=O", "values": [{"measurement": "IC50", "setting": "HaCaT [2]", "value": 2910, "unit": "nM"}, {"measurement": "Activity", "setting": "HaCaT [3]", "value": 113, "unit": "mU/ml"}]}
{"compound": "O=Cc1cc2c(s1)C(=O)c1c(Cl)cccc1C2=O", "values": [{"measurement": "IC50", "setting": "HaCaT [2]", "value": 4700, "unit": "nM"}, {"measurement": "Activity", "setting": "HaCaT [3]", "value": 107, "unit": "mU/ml"}]}
{"compound": "O=C1c2ccsc2C(=O)c2c(Cl)cccc21", "values": [{"measurement": "Activity", "setting": "[6]", "value": "inactive"}, {"measurement": "Activity", "setting": "HaCaT [4]", "value": "Active"}, {"measurement": "Activity", "setting": "HaCaT [5]", "value": "Active"}, {"measurement": "Activity", "setting": "[1]", "value": "Active"}]}
{"compound": "O=C1c2ccsc2C(=O)c2c(F)cccc21", "values": [{"measurement": "IC50", "setting": "HaCaT [2]", "value": 8500, "unit": "nM"}]}
{"compound": "COC(=O)c1cc2c(s1)C(=O)c1c(Cl)cccc1C2=O", "values": [{"measurement": "IC50", "setting": "HaCaT [2]", "value": 900, "unit": "nM"}, {"measurement": "Activity", "setting": "HaCaT [3]", "value": 130, "unit": "mU/ml"}]}
{"compound": "O=C(c1cccnc1)c1cc2c(s1)C(=O)c1c(Br)cccc1C2=O", "values": [{"measurement": "IC50", "setting": "HaCaT [2]", "value": 8630, "unit": "nM"}]}
{"compound": "O=C(c1cccnc1)c1cc2c(s1)C(=O)c1c(Cl)cccc1C2=O", "values": [{"measurement": "IC50", "setting": "HaCaT [2]", "value": 570, "unit": "nM"}, {"measurement": "Activity", "setting": "HaCaT [3]", "value": 125, "unit": "mU/ml"}]}
{"compound": "CC(=O)c1cc2c(s1)C(=O)c1c(O)cccc1C2=O", "values": [{"measurement": "Activity", "setting": "HaCaT [4]", "value": "Active"}, {"measurement": "Activity", "setting": "HaCaT [5]", "value": "Active"}, {"measurement": "Activity", "setting": "[1]", "value": "Active"}, {"measurement": "Activity", "setting": "HaCaT [3]", "value": 319, "unit": "mU/ml"}]}
{"compound": "CC(=O)c1cc2c(s1)C(=O)c1c(Cl)cccc1C2=O", "values": [{"measurement": "Activity", "setting": "HaCaT [4]", "value": "Active"}, {"measurement": "Activity", "setting": "HaCaT [5]", "value": "Active"}, {"measurement": "Activity", "setting": "[1]", "value": "Active"}, {"measurement": "Activity", "setting": "HaCaT [3]", "value": 124, "unit": "mU/ml"}]}
{"compound": "O=C1c2ccsc2C(=O)c2c1cccc2C(F)(F)F", "values": [{"measurement": "IC50", "setting": "HaCaT [2]", "value": 4850, "unit": "nM"}]}
{"compound": "O=C(O)c1cc2c(s1)C(=O)c1c(Cl)cccc1C2=O", "values": [{"measurement": "IC50", "setting": "HaCaT [2]", "value": "> 30000", "unit": "nM"}, {"measurement": "Activity", "setting": "HaCaT [3]", "value": 112, "unit": "mU/ml"}]}
{"compound": "CCc1noc(-c2cc3c(s2)C(=O)c2c(O)cccc2C3=O)n1", "values": [{"measurement": "Activity", "setting": "HaCaT [4]", "value": "Active"}, {"measurement": "Activity", "setting": "HaCaT [5]", "value": "Active"}, {"measurement": "Activity", "setting": "[1]", "value": "Active"}]}
